Measurements published in US12576063B2, “Implantable drug delivery devices for localized drug delivery” (priority 2020, dated 2026).

Columns and labels:
[1] = Solid tissue and prostate gland drug quantification 55 days post-implantation; settings: for liver level: average; for whole prostate gland level: centre transverse section not included; for level in 5 mm punch biopsies surrounding device implants: prostate tissue within ~5 mm of device
Experimental: (§1) In this study, three canines, at least fifteen months old, were employed. […] An 18-gauge brachytherapy needle (OD 1.27 mm) was used for device implantation. Clinical observations and body weight were recorded.
(§2) 55 days post-implantation, study animals were euthanized and underwent gross necropsy. […] Prostate glands were trimmed and cut in three section perpendicular to the urethra: a cranial (rostral) section, a 3-5 mm transverse section, and a caudal section. […] The transverse piece in its entirety was sent for histopathological evaluation.

[2] = in vivo; settings: male, dog
Experimental: as §1, §2

[3] = Plasma drug quantification after implantation of two devices into canine prostate; parameters: species or system canines; settings: male, dog, in vivo
Experimental: Clinical observations and body weight were recorded.
Placement of devices was confirmed by transrectal ultrasound during implantation and 1, 7, 14, and 28 days post-implantation.
Note that the plasma levels as shown in FIGS. 6A and 6B are in micrograms for the oral dose while the scale is in ng/mL for the device plasma levels.

[4] = test system: prostate cancer cells; settings: cited from earlier work

Row | SMILES | liver level [1] | whole prostate gland level [1] | level in 5 mm punch biopsies surrounding device implants [1] | concentration at 55 day ([2]; level in 5 mm punch biopsies surrounding device implants) | concentration at 55 day ([2]; liver level) | concentration at 55 day ([2]; whole prostate gland level) | time to plasma steady state [3] | level in prostate tissue within ~5 mm of the device (molar) [1] | whole prostate gland level (molar) [1] | IC50 [4]
1 | C[C@@](O)(CS(=O)(=O)c1ccc(F)cc1)C(=O)Nc1ccc(C#N)c(C(F)(F)F)c1 [S-bicalutamide] | 19 ± 7 ng/g | 87 ± 11 ng/g | 727 ± 259 ng/g |  |  |  |  |  |  | 
2 | CC(O)(CS(=O)(=O)c1ccc(F)cc1)C(=O)Nc1ccc(C#N)c(C(F)(F)F)c1 (stereo not shown) [bicalutamide] |  |  |  | 1430 ± 501 ng/g | 47 ± 16 ng/g | 172 ± 21 ng/g | ~4 days |  |  | 
3 | C[C@](O)(CS(=O)(=O)c1ccc(F)cc1)C(=O)Nc1ccc(C#N)c(C(F)(F)F)c1 [R-bicalutamide] | 28 ± 9 ng/g | 86 ± 10 ng/g | 698 ± 242 ng/g |  |  |  |  | 1623 ± 562 nM | 196.6 ± 23.5 nM | ~1000 nM
